Data taken from patent publication US12304890B2, “R-type pyridyloxycarboxylic acid, salt and ester derivative thereof, and preparation method therefor, and herbicidal composition and application thereof” (Qingdao Kingagroot Chemical Compound Co., Ltd., priority 2018, dated 2025).

Legend:
Format in all cases: in vivo
Echinochloa crusgalli = assay: Post-emergence test experiment, Echinochloa crusgalli; settings: for Activity level (growth inhibition rate), Echinochloa crusgalli: 1000 g a.i./ha, 3 weeks in greenhouse, fresh weight inhibition
Protocol: (§1) The above described growth inhibition rate is fresh weight inhibition rate.
(§2) Post-emergence test experiment: Monocotyledonous and dicotyledonous weed seeds and main crop seeds (i. e. wheat, corn, rice, soybean, cotton, oilseed, millet and sorghum.) were put into a plastic pot loaded with soil. Then covered with 0.5-2 cm soil, the seeds were allowed to grow in good greenhouse environment. The test plants were treated at 2-3 leaf stage 2 weeks after sowing. The test compounds of the invention were dissolved with acetone respectively, then added with tween-80, and using 1.5 liters per hectare of an emulsible concentrate of methyl oleate as a synergist, and diluted by certain amount of water to certain concentration. The solution was sprayed to the plants with a sprayer. Then the plants were cultured for 3 weeks in the greenhouse, and the experiment result of weed controlling effect was listed in tables 4-5.

Digitaria sanguinalis = assay: Post-emergence test experiment, Digitaria sanguinalis; settings: 1000 g a.i./ha, 3 weeks in greenhouse, fresh weight inhibition
Protocol: as §1, §2

[1] = system: Monocotyledonous and dicotyledonous weed seeds and main crop seeds; assay: Post-emergence test experiment, other weeds and crops (Table 4, 1000 g a.i./ha); settings: 3 weeks in greenhouse, fresh weight inhibition
Protocol: as §1
as §2, with “sprayer.” for “sprayer. Then the plants were cultured for 3 weeks in the greenhouse, and the experiment result of weed controlling effect was listed in tables 4-5.”

C[C@@H](Oc1nc(F)c(Cl)c(N)c1Cl)C(=O)OCc1ccnn1C [Compound 2-353]
Activity level (growth inhibition rate), Echinochloa crusgalli (Echinochloa crusgalli): 5 (Level 5: the growth inhibition rate is greater than 85%)
Activity level (growth inhibition rate), Digitaria sanguinalis (Digitaria sanguinalis): 5 (Level 5: the growth inhibition rate is greater than 85%)
Activity level (growth inhibition rate), Abutilon theophrasti Medic. [1]: 5 (Level 5: the growth inhibition rate is greater than 85%)
Activity level (growth inhibition rate), Galium aparine [1]: 5 (Level 5: the growth inhibition rate is greater than 85%)
Activity level (growth inhibition rate), Monochoria Vaginalis [1]: 5 (Level 5: the growth inhibition rate is greater than 85%)

C[C@@H](Oc1nc(F)c(Cl)c(N)c1Cl)C(=O)SC(C)(C)C [Compound 2-84]
Activity level (growth inhibition rate), Echinochloa crusgalli (Echinochloa crusgalli): 5 (Level 5: the growth inhibition rate is greater than 85%)
Activity level (growth inhibition rate), Digitaria sanguinalis (Digitaria sanguinalis): 5 (Level 5: the growth inhibition rate is greater than 85%)
Activity level (growth inhibition rate), Abutilon theophrasti Medic. [1]: 5 (Level 5: the growth inhibition rate is greater than 85%)
Activity level (growth inhibition rate), Galium aparine [1]: 5 (Level 5: the growth inhibition rate is greater than 85%)
Activity level (growth inhibition rate), Monochoria Vaginalis [1]: 5 (Level 5: the growth inhibition rate is greater than 85%)

CCCCCCCCCCCCSC(=O)[C@@H](C)Oc1nc(F)c(Cl)c(N)c1Cl [Compound 2-236]
Activity level (growth inhibition rate), Echinochloa crusgalli (Echinochloa crusgalli): 5 (Level 5: the growth inhibition rate is greater than 85%)
Activity level (growth inhibition rate), Digitaria sanguinalis (Digitaria sanguinalis): 5 (Level 5: the growth inhibition rate is greater than 85%)
Activity level (growth inhibition rate), Abutilon theophrasti Medic. [1]: 5 (Level 5: the growth inhibition rate is greater than 85%)
Activity level (growth inhibition rate), Galium aparine [1]: 5 (Level 5: the growth inhibition rate is greater than 85%)
Activity level (growth inhibition rate), Monochoria Vaginalis [1]: 5 (Level 5: the growth inhibition rate is greater than 85%)

CC(Oc1nc(F)c(Cl)c(N)c1Cl)C(=O)Sc1cccc(C(C)C)c1 (stereo not shown) [Compound 2-360]
Activity level (growth inhibition rate), Echinochloa crusgalli (Echinochloa crusgalli): 5 (Level 5: the growth inhibition rate is greater than 85%)
Activity level (growth inhibition rate), Digitaria sanguinalis (Digitaria sanguinalis): 5 (Level 5: the growth inhibition rate is greater than 85%)
Activity level (growth inhibition rate), Abutilon theophrasti Medic. [1]: 5 (Level 5: the growth inhibition rate is greater than 85%)
Activity level (growth inhibition rate), Galium aparine [1]: 5 (Level 5: the growth inhibition rate is greater than 85%)
Activity level (growth inhibition rate), Monochoria Vaginalis [1]: 5 (Level 5: the growth inhibition rate is greater than 85%)

CCCC(C)SC(=O)[C@@H](C)Oc1nc(F)c(Cl)c(N)c1Cl (stereo partly shown) [Compound 2-94]
Activity level (growth inhibition rate), Echinochloa crusgalli (Echinochloa crusgalli): 5 (Level 5: the growth inhibition rate is greater than 85%)
Activity level (growth inhibition rate), Digitaria sanguinalis (Digitaria sanguinalis): 5 (Level 5: the growth inhibition rate is greater than 85%)
Activity level (growth inhibition rate), Abutilon theophrasti Medic. [1]: 5 (Level 5: the growth inhibition rate is greater than 85%)
Activity level (growth inhibition rate), Galium aparine [1]: 5 (Level 5: the growth inhibition rate is greater than 85%)
Activity level (growth inhibition rate), Monochoria Vaginalis [1]: 5 (Level 5: the growth inhibition rate is greater than 85%)

CC(Oc1nc(F)c(Cl)c(N)c1Cl)C(=O)OCc1ccccc1C(F)(F)F (stereo not shown) [Compound 2-327]
Activity level (growth inhibition rate), Echinochloa crusgalli (Echinochloa crusgalli): 5 (Level 5: the growth inhibition rate is greater than 85%)
Activity level (growth inhibition rate), Digitaria sanguinalis (Digitaria sanguinalis): 5 (Level 5: the growth inhibition rate is greater than 85%)
Activity level (growth inhibition rate), Abutilon theophrasti Medic. [1]: 5 (Level 5: the growth inhibition rate is greater than 85%)
Activity level (growth inhibition rate), Galium aparine [1]: 5 (Level 5: the growth inhibition rate is greater than 85%)
Activity level (growth inhibition rate), Monochoria Vaginalis [1]: 5 (Level 5: the growth inhibition rate is greater than 85%)

CCCCCCOC(=O)[C@@H](C)Oc1nc(F)c(Cl)c(N)c1Cl [Compound 2-101]
Activity level (growth inhibition rate), Echinochloa crusgalli (Echinochloa crusgalli): 5 (Level 5: the growth inhibition rate is greater than 85%)
Activity level (growth inhibition rate), Digitaria sanguinalis (Digitaria sanguinalis): 5 (Level 5: the growth inhibition rate is greater than 85%)
Activity level (growth inhibition rate), Abutilon theophrasti Medic. [1]: 5 (Level 5: the growth inhibition rate is greater than 85%)
Activity level (growth inhibition rate), Galium aparine [1]: 5 (Level 5: the growth inhibition rate is greater than 85%)
Activity level (growth inhibition rate), Monochoria Vaginalis [1]: 5 (Level 5: the growth inhibition rate is greater than 85%)

CC(Oc1nc(F)c(Cl)c(N)c1Cl)C(=O)OCC(=O)N(C)C (stereo not shown) [Compound 2-289]
Activity level (growth inhibition rate), Echinochloa crusgalli (Echinochloa crusgalli): 5 (Level 5: the growth inhibition rate is greater than 85%)
Activity level (growth inhibition rate), Digitaria sanguinalis (Digitaria sanguinalis): 5 (Level 5: the growth inhibition rate is greater than 85%)
Activity level (growth inhibition rate), Abutilon theophrasti Medic. [1]: 5 (Level 5: the growth inhibition rate is greater than 85%)
Activity level (growth inhibition rate), Galium aparine [1]: 5 (Level 5: the growth inhibition rate is greater than 85%)
Activity level (growth inhibition rate), Monochoria Vaginalis [1]: 5 (Level 5: the growth inhibition rate is greater than 85%)

CC(C)CCCCCOC(=O)[C@@H](C)Oc1nc(F)c(Cl)c(N)c1Cl [Compound 2-159]
Activity level (growth inhibition rate), Echinochloa crusgalli (Echinochloa crusgalli): 5 (Level 5: the growth inhibition rate is greater than 85%)
Activity level (growth inhibition rate), Digitaria sanguinalis (Digitaria sanguinalis): 5 (Level 5: the growth inhibition rate is greater than 85%)
Activity level (growth inhibition rate), Abutilon theophrasti Medic. [1]: 5 (Level 5: the growth inhibition rate is greater than 85%)
Activity level (growth inhibition rate), Galium aparine [1]: 5 (Level 5: the growth inhibition rate is greater than 85%)
Activity level (growth inhibition rate), Monochoria Vaginalis [1]: 5 (Level 5: the growth inhibition rate is greater than 85%)

CCC(C)CCOC(=O)[C@@H](C)Oc1nc(F)c(Cl)c(N)c1Cl (stereo partly shown) [Compound 2-105]
Activity level (growth inhibition rate), Echinochloa crusgalli (Echinochloa crusgalli): 5 (Level 5: the growth inhibition rate is greater than 85%)
Activity level (growth inhibition rate), Digitaria sanguinalis (Digitaria sanguinalis): 5 (Level 5: the growth inhibition rate is greater than 85%)
Activity level (growth inhibition rate), Abutilon theophrasti Medic. [1]: 5 (Level 5: the growth inhibition rate is greater than 85%)
Activity level (growth inhibition rate), Galium aparine [1]: 5 (Level 5: the growth inhibition rate is greater than 85%)
Activity level (growth inhibition rate), Monochoria Vaginalis [1]: 5 (Level 5: the growth inhibition rate is greater than 85%)

C[C@@H](Oc1nc(F)c(Cl)c(N)c1Cl)C(=O)OCc1cnn(C)c1 [Compound 2-354]
Activity level (growth inhibition rate), Echinochloa crusgalli (Echinochloa crusgalli): 5 (Level 5: the growth inhibition rate is greater than 85%)
Activity level (growth inhibition rate), Digitaria sanguinalis (Digitaria sanguinalis): 5 (Level 5: the growth inhibition rate is greater than 85%)
Activity level (growth inhibition rate), Abutilon theophrasti Medic. [1]: 5 (Level 5: the growth inhibition rate is greater than 85%)
Activity level (growth inhibition rate), Galium aparine [1]: 5 (Level 5: the growth inhibition rate is greater than 85%)
Activity level (growth inhibition rate), Monochoria Vaginalis [1]: 5 (Level 5: the growth inhibition rate is greater than 85%)

CC(Oc1nc(F)c(Cl)c(N)c1Cl)C(=O)OCc1cccc(C(F)(F)F)c1 (stereo not shown) [Compound 2-329]
Activity level (growth inhibition rate), Echinochloa crusgalli (Echinochloa crusgalli): 5 (Level 5: the growth inhibition rate is greater than 85%)
Activity level (growth inhibition rate), Digitaria sanguinalis (Digitaria sanguinalis): 5 (Level 5: the growth inhibition rate is greater than 85%)
Activity level (growth inhibition rate), Abutilon theophrasti Medic. [1]: 5 (Level 5: the growth inhibition rate is greater than 85%)
Activity level (growth inhibition rate), Galium aparine [1]: 5 (Level 5: the growth inhibition rate is greater than 85%)
Activity level (growth inhibition rate), Monochoria Vaginalis [1]: 5 (Level 5: the growth inhibition rate is greater than 85%)

COC(=O)[C@@H](C)Oc1nc(F)c(Cl)c(NCc2ccc(C(F)(F)F)o2)c1Cl [Compound 2-387]
Activity level (growth inhibition rate), Echinochloa crusgalli (Echinochloa crusgalli): 5 (Level 5: the growth inhibition rate is greater than 85%)
Activity level (growth inhibition rate), Digitaria sanguinalis (Digitaria sanguinalis): 5 (Level 5: the growth inhibition rate is greater than 85%)
Activity level (growth inhibition rate), Abutilon theophrasti Medic. [1]: 5 (Level 5: the growth inhibition rate is greater than 85%)
Activity level (growth inhibition rate), Galium aparine [1]: 5 (Level 5: the growth inhibition rate is greater than 85%)
Activity level (growth inhibition rate), Monochoria Vaginalis [1]: 5 (Level 5: the growth inhibition rate is greater than 85%)

CC(C)=NOCCOC(=O)[C@@H](C)Oc1nc(C)c(Cl)c(N)c1Cl [Compound 2-386]
Activity level (growth inhibition rate), Echinochloa crusgalli (Echinochloa crusgalli): 5 (Level 5: the growth inhibition rate is greater than 85%)
Activity level (growth inhibition rate), Digitaria sanguinalis (Digitaria sanguinalis): 5 (Level 5: the growth inhibition rate is greater than 85%)
Activity level (growth inhibition rate), Abutilon theophrasti Medic. [1]: 5 (Level 5: the growth inhibition rate is greater than 85%)
Activity level (growth inhibition rate), Galium aparine [1]: 5 (Level 5: the growth inhibition rate is greater than 85%)
Activity level (growth inhibition rate), Monochoria Vaginalis [1]: 5 (Level 5: the growth inhibition rate is greater than 85%)

C[C@@H](Oc1nc(F)c(Cl)c(N)c1Cl)C(=O)Sc1ccc2ccccc2c1 [Compound 2-339]
Activity level (growth inhibition rate), Echinochloa crusgalli (Echinochloa crusgalli): 5 (Level 5: the growth inhibition rate is greater than 85%)
Activity level (growth inhibition rate), Digitaria sanguinalis (Digitaria sanguinalis): 5 (Level 5: the growth inhibition rate is greater than 85%)
Activity level (growth inhibition rate), Abutilon theophrasti Medic. [1]: 5 (Level 5: the growth inhibition rate is greater than 85%)
Activity level (growth inhibition rate), Galium aparine [1]: 5 (Level 5: the growth inhibition rate is greater than 85%)
Activity level (growth inhibition rate), Monochoria Vaginalis [1]: 5 (Level 5: the growth inhibition rate is greater than 85%)

C[C@H](Oc1nc(F)c(Cl)c(N)c1Cl)C(=O)OCC1CCCO1 (stereo partly shown) [reference compound]
inhibition at 200 g/ha (Echinochloa crusgalli; Echinochloa crus-galli, 504 h, 200 g a.i./ha, 3 weeks, weed resistant to ALS inhibitor and ACCe herbicides, read-out: Echinochloa crusgalli, activity level (growth inhibition rate)): 5 to 20%
